Results from PMC9750858, “Rapid biosensor development using plant hormone receptors as reprogrammable scaffolds” (Nature Biotechnology, 2022).
“And” between values parts separate entries of the source, which are not always exact repeats. Equal values may be shown once.

Assays:
[1] = test system: PYR1-derived cannabinoid receptors (PYR1 mutants) binding HAB1; conditions: for selectivity of Y2H response of the sensor evolved for the ligand: PYR1^CBDA or PYR1^CP 47,497, all ligands tested at 25 µM; for cannabinoid concentration to which CB-S1 library clones respond (as low as): clones from shuffled library CB-S1
PYR1^WIN-M = biological target: T1, PYR1^WIN-M (Arabidopsis thaliana, UniProt O49686, A160I/D26G/E4G/F159A/H60P/K59Q/N90S/Y23H); test: ELISA-like plate assay, immobilized PYR1^WIN-M, biotinylated ΔN-HAB1^T+; format: binding; conditions: replicates
T1 construct: made in house
T1 sequence (O49686 with tags, fused parts or gaps E4G/Y23H/D26G/K59Q/H60P/N90S/F159A/A160I): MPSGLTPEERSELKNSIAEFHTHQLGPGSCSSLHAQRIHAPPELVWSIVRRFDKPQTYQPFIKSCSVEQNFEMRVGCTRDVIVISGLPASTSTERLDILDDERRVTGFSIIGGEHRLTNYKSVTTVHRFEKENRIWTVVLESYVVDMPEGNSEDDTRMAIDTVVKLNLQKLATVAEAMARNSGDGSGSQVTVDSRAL

PYR1^PIRI = biological target: T2, PYR1^PIRI (Arabidopsis thaliana, UniProt O49686, A160T/E130G/F159T/K59R/N119S/S122Q/S92M/V174A); test: Split NanoLuc luciferase complementation in yeast, NLuc^N-PYR1^PIRI/NLuc^C-HAB1; format: cell-based; conditions: Figure 4f(bottom), replicates
T2 construct: >PYR1-PIRI; expressed in transfected cells; host or cells: Saccharomyces cerevisiae BY4742

PYR1^DIAZI = PYR1^DIAZI (Arabidopsis thaliana, UniProt O49686, A160V/E8G/F108Y/F159G/L87M/M158V/V81Y); test: Split NanoLuc luciferase complementation in yeast, NLuc^N-PYR1^DIAZI/NLuc^C-HAB1; format: cell-based; design: >PYR1-DIAZI; expressed in transfected cells; host or cells: Saccharomyces cerevisiae BY4742; conditions: Figure 4f(top), 3 replicates
Chain of PYR1^DIAZI (Q9CAJ0 179-511): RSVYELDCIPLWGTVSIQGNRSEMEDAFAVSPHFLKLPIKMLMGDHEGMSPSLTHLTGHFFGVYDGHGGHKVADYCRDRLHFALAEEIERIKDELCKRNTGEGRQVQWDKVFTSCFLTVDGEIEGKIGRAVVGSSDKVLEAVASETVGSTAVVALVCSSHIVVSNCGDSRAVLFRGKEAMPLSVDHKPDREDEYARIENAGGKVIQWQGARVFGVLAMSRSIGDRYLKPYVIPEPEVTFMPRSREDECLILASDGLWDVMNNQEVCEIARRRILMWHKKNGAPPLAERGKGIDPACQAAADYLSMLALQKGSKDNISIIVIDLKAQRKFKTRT
Chain of PYR1^DIAZI (O49686 other isoform, or with tags, fused parts or gaps E8G/V81Y/L87M/F108Y/M158V/F159G/A160V): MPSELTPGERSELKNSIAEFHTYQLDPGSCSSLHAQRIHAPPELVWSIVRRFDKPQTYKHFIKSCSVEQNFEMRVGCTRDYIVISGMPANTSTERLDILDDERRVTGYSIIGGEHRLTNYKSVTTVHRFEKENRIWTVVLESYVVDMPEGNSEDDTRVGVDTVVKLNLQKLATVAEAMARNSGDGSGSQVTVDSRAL

T2 sequence (O49686 other isoform, or with tags, fused parts or gaps K59R/S92M/N119S/S122Q/E130G/F159T/A160T/V174A): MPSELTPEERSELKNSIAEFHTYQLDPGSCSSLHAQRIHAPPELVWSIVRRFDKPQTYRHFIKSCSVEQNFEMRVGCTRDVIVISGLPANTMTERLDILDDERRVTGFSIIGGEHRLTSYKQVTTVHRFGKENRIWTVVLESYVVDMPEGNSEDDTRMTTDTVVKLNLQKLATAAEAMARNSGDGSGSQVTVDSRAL
T2 sequence (Q9CAJ0 179-511, further chain): as the sequence (Q9CAJ0 179-511) above

`C=C(C)[C@@H]1CCC(C)=C[C@H]1c1c(O)cc(CCCCC)c(C(=O)O)c1O` [CBDA, cannabidiolic acid] was tested, and the “selectivity of Y2H response of the sensor evolved for the ligand” value [1] was “selectively responds”.
`CCCCCCC(C)(C)c1ccc(C2CCCC(O)C2)c(O)c1` (centres unmarked) [CP 47,497, cannabicyclohexanol] was tested, and the “selectivity of Y2H response of the sensor evolved for the ligand” value [1] was “selectively responds”, the “ELISA signal generation, receptor cross-reactivity (source data)” value (“ELISA signal generation” for short) (PYR1^WIN-M; cannabinoid at 2 nM, 497) was 0.117 and 0.142 and 0.12 and the “ELISA signal generation” value (PYR1^WIN-M; cannabinoid at 2 μM, 497) was 0.105 (2×) and 0.078.
With `CCCn1c(C)c(C(=O)c2cccc3ccccc23)c2ccccc21` [JWH-015] the “cannabinoid concentration to which CB-S1 library clones respond (as low as)” value (“cannabinoid concentration” below) [1] was 100 nM.
In the case of `CCCCn1c(C)c(C(=O)c2cccc3ccccc23)c2ccccc21` [JWH-016], the “cannabinoid concentration” value [1] is reported as 50 nM.
In the case of `CCCCCn1cc(C(=O)c2cccc3ccccc23)c2ccccc21` [JWH-018], the “cannabinoid concentration” value [1] is reported as 500 nM.
In the case of `CCCn1cc(C(=O)c2cccc3ccccc23)c2ccccc21` [JWH-072], the “cannabinoid concentration” value [1] is reported as 50 nM, the “ELISA signal generation” value (PYR1^WIN-M; cannabinoid at 2 nM) is reported as 0.289 and 0.097 and 0.074 and the “ELISA signal generation” value (PYR1^WIN-M; cannabinoid at 2 μM) is reported as 0.219 and 0.29 and 0.268.
In the case of `COP(=S)(OC)Oc1ccc([N+](=O)[O-])cc1` [Parathion-methyl, parathion-methyl], the “Sensor signal (Figure 4f bottom), replicate values” (from here on “Sensor signal (Figure 4f bottom)”) (PYR1^PIRI; [Agonist] 1e-5 nM) is reported as 11.8454 and 17.8157 and 9.952, the “Sensor signal (Figure 4f bottom)” value (PYR1^PIRI; [Agonist] 0.5 nM) is reported as 11.1865 and 13.661 and 9.612 and the “Sensor signal (Figure 4f bottom)” value (PYR1^PIRI; [Agonist] 1 nM) is reported as 11.9354 and 18.4849 and 9.205. The “Sensor signal (Figure 4f bottom)” value (PYR1^PIRI; [Agonist] 10 nM) was 10.4509 and 13.1415 and 9.783, the “Sensor signal (Figure 4f bottom)” value (PYR1^PIRI; [Agonist] 100 nM) was 9.423 and 12.7271 and 15.286 and the “Sensor signal (Figure 4f bottom)” value (PYR1^PIRI; [Agonist] 1000 nM) was 9.542 and 20.0758 and 23.4336. For the same molecule, the “Sensor signal (Figure 4f bottom)” value (PYR1^PIRI; [Agonist] 10000 nM) was 13.1296 and 21.6675 and 76.706, the “Sensor signal (Figure 4f bottom)” value (PYR1^PIRI; [Agonist] 100000 nM) was 11.2909 and 29.034 and 72.4977 and the “Sensor signal (Figure 4f top), replicate values” (“Sensor signal (Figure 4f top)” below) (PYR1^DIAZI; [Agonist] 1e-5 nM) was 15.0369 and 11.1106 and 15.282. The “Sensor signal (Figure 4f top)” value (PYR1^DIAZI; [Agonist] 0.5 nM) was 71.449 and 15.1942 and 16.4674, the “Sensor signal (Figure 4f top)” value (PYR1^DIAZI; [Agonist] 1 nM) was 69.4998 and 48.0045 and 15.815 and the “Sensor signal (Figure 4f top)” value (PYR1^DIAZI; [Agonist] 10 nM) was 30.1106 and 67.3607 and 15.8069. For the same molecule, the “Sensor signal (Figure 4f top)” value (PYR1^DIAZI; [Agonist] 100 nM) was 15.5477 and 62.6829 and 17.0922, the “Sensor signal (Figure 4f top)” value (PYR1^DIAZI; [Agonist] 1000 nM) was 34.4735 and 76.5381 and 29.0859 and the “Sensor signal (Figure 4f top)” value (PYR1^DIAZI; [Agonist] 10000 nM) was 73.5456 and 54.5583 and 65.8713. For the same molecule, the “Sensor signal (Figure 4f top)” value (PYR1^DIAZI; [Agonist] 100000 nM) was 78.279 and 10.2013 and 20.8749.
